{"source": "patent US20100247606A1", "about": "“INTRAOCULAR SUSTAINED RELEASE DRUG DELIVERY SYSTEMS AND METHODS FOR TREATING OCULAR CONDITIONS” (ALLERGAN, INC., priority 2009, published 2010)", "key": {"[1]": {"test_system": "dog eye", "assay": "Hyperemia and ocular tolerability after intraocular administration in Beagle dogs", "type": "in vivo", "description": "Microspheres or implant containing an anti-hypertensive agent was injected in one eye and placebo microspheres or implant was injected in the other eye as a control. IOP and hyperemia were monitored for multiweek periods. Ultra thin wall 25-27 gauge needles were used. When microspheres were used they were suspended in vehicle at 10% or 20% by weight."}, "[2]": {"test_system": "dog eye intraocular pressure (IOP)", "assay": "Percent change from baseline IOP after intraocular administration in Beagle dogs", "type": "in vivo", "settings": "for IOP reduction maintained through: compared to fellow eye", "description": "Examples 3 to 7 below set forth in vivo (Beagle dogs) studies carried out by intraocular injection of microspheres or implant, suspended in aqueous vehicle (2% carboxy methylcellulose [CMC], 0.1% Tween 80 in 0.9% saline) or in a high viscosity, high shear rate gel (i.e. a suitable high molecular weight, polymeric hyaluronic acid). Microspheres or implant containing an anti-hypertensive agent was injected in one eye and placebo microspheres or implant was injected in the other eye as a control. IOP and hyperemia were monitored for multiweek periods. Ultra thin wall 25-27 gauge needles were used. When microspheres were used they were suspended in vehicle at 10% or 20% by weight."}, "[3]": {"settings": "anterior intravitreal administration, dog"}}}
{"smiles": "CCCCC[C@H](O)c1ccc(N2C(=O)CC[C@@H]2COCc2ccc(C(=O)OC(C)C)s2)cc1", "note": "[Compound A, 5-{(R)-1-[4-((S)-1-Hydroxy-hexyl)-phenyl]-5-oxo-pyrrolidin-2-ylmethoxymethyl}-thiophene-2-carboxylic acid isopropyl ester]", "values": [{"measurement": "conjunctival hyperemia", "setting": "[1]; [3]", "result": "mild conjunctival hyperemia through day 3"}, {"measurement": "ocular inflammation at follow up examinations", "setting": "[1]; anterior vitreous injection", "result": "no signs of ocular inflammation"}, {"measurement": "ocular inflammation at follow up examinations", "setting": "[1]; intracameral injection", "result": "no signs of ocular inflammation"}, {"measurement": "subsequent conjunctival hyperemia recordings", "setting": "[1]; intracameral, after the first day", "result": 0}, {"measurement": "maximum conjunctival hyperemia score", "setting": "[1]; intracameral, near the site of injection, first day", "result": "+0.5"}, {"measurement": "tolerability", "setting": "[1]; neat injections in the anterior chamber and anterior vitreous", "result": "well tolerated"}, {"measurement": "IOP reduction maintained through", "setting": "[2]; 50 microliter anterior vitreous injection", "result": 3, "unit": "days"}, {"measurement": "maximum IOP reduction from baseline", "setting": "[2]; 50 microliter intracameral injection, 0.1% in normal saline", "result": "about 50%"}, {"measurement": "IOP reduction maintained through", "setting": "[2]; 50 microliter intracameral injection", "result": 3, "unit": "days"}, {"measurement": "maximum IOP reduction below baseline", "setting": "[2]; [3]", "result": "about 30%"}]}
